Test results from PubChem BioAssay AID248 (DTP/NCI, 2004).
Values joined by “and” are separate entries in the source; they are usually repeats but may differ in a detail not shown here. Equal values may be shown once. Toxic doses and inconclusive results are not listed. No stated cut-off is given here; in the data, active means T/C of 150% or more; inactive means T/C below 125%.

System: L1210 leukemia ip in BDF1 mice, survival T/C
Assay: NCI In Vivo Anticancer Drug Screen. Data for tumor model L1210 Leukemia (intraperitoneal) in B6D2F1 (BDF1) mice
Conditions: endpoint: mean survival time, higher = longer survival
Outline: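 Each compound was tested against a transplantable tumor grown in mice. The endpoint was survival, with treated animals benchmarked against vehicle controls as a simple ratio.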

[1] = dose: 100.0 mg/kg/injection, schedule: Q04DX002 (ip), vehicle: Klucel (hydroxypropylcellulose) (HPC)
[2] = dose: 200.0 mg/kg/injection, schedule: Q04DX002 (ip), vehicle: Klucel (hydroxypropylcellulose) (HPC)
[3] = dose: 400.0 mg/kg/injection, schedule: Q04DX002 (ip), vehicle: Klucel (hydroxypropylcellulose) (HPC)
[4] = dose: 12.5 mg/kg/injection, schedule: Q01DX001 (ip), vehicle: saline
[5] = dose: 25.0 mg/kg/injection, schedule: Q01DX001 (ip), vehicle: saline

Measured: T/C

CC(/C=C/c1ccccc1Cl)=N\NC(=O)c1ccncc1
inactive: dose: 100.0 mg/kg/injection, schedule: Q01DX001 (ip), vehicle: saline with Tween-80 95 % of control | dose: 200.0 mg/kg/injection, schedule: Q01DX001 (ip), vehicle: saline with Tween-80 95 % of control | dose: 400.0 mg/kg/injection, schedule: Q01DX001 (ip), vehicle: saline with Tween-80 90 % of control

CC(=O)OCC(=O)[C@@]12OC(C)(C)O[C@@H]1C[C@H]1[C@@H]3CC(C=O)=C4C=C(OCCCl)CC[C@]4(C)[C@@]3(F)[C@@H](O)C[C@@]12C
inactive: dose: 100.0 mg/kg/injection, schedule: Q01DX009 (ip), vehicle: Klucel (hydroxypropylcellulose) (HPC) 95 % of control

CC1(C)OC(=O)CC1CCCC(=O)O (configuration not stated)
inactive: [1] 104 % of control | [2] 96 % of control | [3] 96 % of control

CC(C)C(=Nc1ccc(Cl)c(Cl)c1)N(C)C
inactive: dose: 44.0 mg/kg/injection, schedule: Q01DX Z (ip), vehicle: methylcellulose (MC) 95 % of control | dose: 66.0 mg/kg/injection, schedule: Q01DX Z (ip), vehicle: methylcellulose (MC) 102 % of control

O=C1CCCCCC1c1ccccc1 (configuration not stated)
inactive: dose: 100.0 mg/kg/injection, schedule: Q04DX003 (ip), vehicle: saline with Tween-80 98 % of control | dose: 200.0 mg/kg/injection, schedule: Q04DX003 (ip), vehicle: saline with Tween-80 96 % of control | dose: 400.0 mg/kg/injection, schedule: Q04DX003 (ip), vehicle: saline with Tween-80 106 % of control

CC(=O)OC(C)(/N=N/C(C)(OC(C)=O)c1ccc(Cl)cc1)c1ccc(Cl)cc1 (configuration not stated)
inactive: dose: 25.0 mg/kg/injection, schedule: Q01DX009 (ip), vehicle: gum acacia 113 % of control | dose: 25.0 mg/kg/injection, schedule: Q04DX003 (ip), vehicle: gum acacia 98 % of control | dose: 50.0 mg/kg/injection, schedule: Q01DX009 (ip), vehicle: gum acacia 100 % of control | dose: 50.0 mg/kg/injection, schedule: Q04DX003 (ip), vehicle: gum acacia 98 % of control | dose: 100.0 mg/kg/injection, schedule: Q01DX001 (ip), vehicle: gum acacia 92 % of control | dose: 100.0 mg/kg/injection, schedule: Q01DX009 (ip), vehicle: gum acacia 94 % of control | dose: 100.0 mg/kg/injection, schedule: Q04DX003 (ip), vehicle: gum acacia 102 % of control

C=CCN(CC=C)P(=O)(N1CC1)N1CC1
inactive: dose: 6.2 mg/kg/injection, schedule: Q01DX001 (ip), vehicle: saline 88 % of control | [4] 88 % of control | [5] 88 % of control | dose: 50.0 mg/kg/injection, schedule: Q01DX001 (ip), vehicle: saline 88 % of control

c1ccc2cc3nc4cc5ccccc5cc4nc3cc2c1
inactive: dose: 100.0 mg/kg/injection, schedule: Q01DX001 (ip), vehicle: acetone 95 % of control | dose: 100.0 mg/kg/injection, schedule: Q01DX009 (ip), vehicle: saline with Tween-80 93 % of control | dose: 200.0 mg/kg/injection, schedule: Q01DX001 (ip), vehicle: acetone 95 % of control | dose: 200.0 mg/kg/injection, schedule: Q01DX009 (ip), vehicle: saline with Tween-80 103 % of control | dose: 400.0 mg/kg/injection, schedule: Q01DX001 (ip), vehicle: acetone 92 % of control | dose: 400.0 mg/kg/injection, schedule: Q01DX009 (ip), vehicle: saline with Tween-80 87 % of control

C[n+]1c2ccccc2cc2ccc(N=[N+]=[N-])cc21
inactive: dose: 6.25 mg/kg/injection, schedule: Q01DX009 (ip), vehicle: saline 101 % of control | dose: 6.25 mg/kg/injection, schedule: Q04DX003 (ip), vehicle: saline 101 % of control | [4] 97 % of control | dose: 12.5 mg/kg/injection, schedule: Q01DX009 (ip), vehicle: saline 98 % of control | dose: 12.5 mg/kg/injection, schedule: Q04DX003 (ip), vehicle: saline 100 % of control | [5] 97 % of control | dose: 25.0 mg/kg/injection, schedule: Q01DX009 (ip), vehicle: saline 98 % of control | dose: 25.0 mg/kg/injection, schedule: Q04DX003 (ip), vehicle: saline 111 % of control | dose: 35.0 mg/kg/injection, schedule: Q01DX009 (ip), vehicle: saline 104 % of control

Cc1ccc(-n2c(=O)c(N=Nc3ccc(Br)cc3)c(O)n(-c3ccccc3C)c2=S)cc1
inactive: dose: 100.0 mg/kg/injection, schedule: Q01DX001 (ip), vehicle: Klucel (hydroxypropylcellulose) (HPC) 95 % of control | dose: 200.0 mg/kg/injection, schedule: Q01DX001 (ip), vehicle: Klucel (hydroxypropylcellulose) (HPC) 88 % of control | dose: 400.0 mg/kg/injection, schedule: Q01DX001 (ip), vehicle: Klucel (hydroxypropylcellulose) (HPC) 88 % of control

COc1ccc(C(=O)OCc2ccccc2CN(C)C)cc1
inactive: dose: 100.0 mg/kg/injection, schedule: Q04DX002 (ip), vehicle: saline 105 % of control | dose: 200.0 mg/kg/injection, schedule: Q04DX002 (ip), vehicle: saline 105 % of control

CC(C)=CCCC/C=N/NC(N)=O
inactive: dose: 75.0 mg/kg/injection, schedule: Q01DX001 (ip), vehicle: acetone 102 % of control | dose: 150.0 mg/kg/injection, schedule: Q01DX001 (ip), vehicle: acetone 97 % of control

O=C(Nc1ccc(Oc2ccc(NC(=O)Nc3cccc(F)c3)cc2)cc1)Nc1cccc(F)c1
inactive: dose: 25.0 mg/kg/injection, schedule: Q01DX009 (ip), vehicle: carboxymethylcellulose (CMC) 89 % of control and 90 % of control | dose: 50.0 mg/kg/injection, schedule: Q01DX009 (ip), vehicle: carboxymethylcellulose (CMC) 86 % of control and 87 % of control | dose: 100.0 mg/kg/injection, schedule: Q01DX001 (ip), vehicle: carboxymethylcellulose (CMC) 93 % of control and 94 % of control | dose: 100.0 mg/kg/injection, schedule: Q01DX009 (ip), vehicle: carboxymethylcellulose (CMC) 100 % of control and 106 % of control and 86 % of control | dose: 100.0 mg/kg/injection, schedule: Q04DX002 (ip), vehicle: carboxymethylcellulose (CMC) 97 % of control and 99 % of control | dose: 100.0 mg/kg/injection, schedule: Q04DX003 (ip), vehicle: carboxymethylcellulose (CMC) 94 % of control and 105 % of control | dose: 200.0 mg/kg/injection, schedule: Q01DX001 (ip), vehicle: carboxymethylcellulose (CMC) 96 % of control and 105 % of control | dose: 200.0 mg/kg/injection, schedule: Q01DX009 (ip), vehicle: carboxymethylcellulose (CMC) 99 % of control | dose: 200.0 mg/kg/injection, schedule: Q04DX002 (ip), vehicle: carboxymethylcellulose (CMC) 95 % of control and 108 % of control | dose: 200.0 mg/kg/injection, schedule: Q04DX003 (ip), vehicle: carboxymethylcellulose (CMC) 94 % of control and 92 % of control | dose: 400.0 mg/kg/injection, schedule: Q01DX001 (ip), vehicle: carboxymethylcellulose (CMC) 96 % of control and 91 % of control | dose: 400.0 mg/kg/injection, schedule: Q01DX009 (ip), vehicle: carboxymethylcellulose (CMC) 93 % of control | dose: 400.0 mg/kg/injection, schedule: Q04DX002 (ip), vehicle: carboxymethylcellulose (CMC) 95 % of control and 89 % of control | dose: 400.0 mg/kg/injection, schedule: Q04DX003 (ip), vehicle: carboxymethylcellulose (CMC) 91 % of control and 92 % of control

Cc1n(C(C)C)c2c([n+]1C)C(=O)c1ccccc1C2=O
inactive: dose: 0.39 mg/kg/injection, schedule: Q01DX009 (ip), vehicle: saline 106 % of control | dose: 0.78 mg/kg/injection, schedule: Q01DX009 (ip), vehicle: saline 98 % of control | dose: 1.56 mg/kg/injection, schedule: Q01DX009 (ip), vehicle: saline 101 % of control | dose: 1.56 mg/kg/injection, schedule: Q04DX003 (ip), vehicle: acetone 95 % of control | dose: 2.33 mg/kg/injection, schedule: Q01DX009 (ip), vehicle: acetone 88 % of control | dose: 3.54 mg/kg/injection, schedule: Q01DX009 (ip), vehicle: acetone 92 % of control

C=CC(C)(O)CCC1C(=C)C(O)CC2C(C)(C)CCCC12C (configuration not stated)
inactive: dose: 100.0 mg/kg/injection, schedule: Q01DX009 (ip), vehicle: saline 100 % of control | dose: 100.0 mg/kg/injection, schedule: Q04DX003 (ip), vehicle: saline 105 % of control | dose: 200.0 mg/kg/injection, schedule: Q01DX009 (ip), vehicle: saline 100 % of control | dose: 200.0 mg/kg/injection, schedule: Q04DX003 (ip), vehicle: saline 95 % of control | dose: 400.0 mg/kg/injection, schedule: Q01DX009 (ip), vehicle: saline 94 % of control | dose: 400.0 mg/kg/injection, schedule: Q04DX003 (ip), vehicle: saline 90 % of control

C=CCCCCCCCCC(=O)N/N=C(/C)c1ccc(C)cc1
inactive: [1] 103 % of control | [2] 118 % of control | [3] 92 % of control

O=P(NC1CCCCC1)(NC1CCCCC1)c1ccccc1
inactive: dose: 100.0 mg/kg/injection, schedule: Q04DX002 (ip), vehicle: gum acacia 104 % of control | dose: 200.0 mg/kg/injection, schedule: Q04DX002 (ip), vehicle: gum acacia 93 % of control | dose: 400.0 mg/kg/injection, schedule: Q04DX002 (ip), vehicle: gum acacia 96 % of control
